Drawing on patent publication US20260297081A1, “COMPOUNDS AND METHODS OF TREATING CANCERS” (Cullgen Inc., priority 2023, published 2026), this text covers activity, IC50 and inhibition for 14 compounds.

SMILES strings stand for the structures.

What all share (type): cell-based
Assay [1] deals with T1, CDK4 (Homo sapiens, UniProt P11802+Q16531). As to the kind of experiment: HiBiT detection of HiBiT-tagged CDK4 protein level in MCF7 cells, 16 hours (Table 8). The arrangement: expressed in transfected cells; host or cells: MCF7. The note with it: MCF7 cells stably expressing HiBiT tagged target proteins; for activity at 0.01 µM: 10 nM, read-out: % CDK4 Relative Level (10 nM); for activity at 0.1 µM: 100 nM, read-out: % CDK4 Relative Level (100 nM). Here is the method:
HiBiT detection system quantitatively measures total amounts of HiBiT-tagged proteins using a luminescent based method. MCF7 cells stably expressing HiBiT tagged target proteins were treated with heterobifunctional compounds at indicated concentrations for 16 hours, then lysed with Nano-Glo HiBiT Lytic detection reagents.
Target sequence in this assay (P11802 whole entry): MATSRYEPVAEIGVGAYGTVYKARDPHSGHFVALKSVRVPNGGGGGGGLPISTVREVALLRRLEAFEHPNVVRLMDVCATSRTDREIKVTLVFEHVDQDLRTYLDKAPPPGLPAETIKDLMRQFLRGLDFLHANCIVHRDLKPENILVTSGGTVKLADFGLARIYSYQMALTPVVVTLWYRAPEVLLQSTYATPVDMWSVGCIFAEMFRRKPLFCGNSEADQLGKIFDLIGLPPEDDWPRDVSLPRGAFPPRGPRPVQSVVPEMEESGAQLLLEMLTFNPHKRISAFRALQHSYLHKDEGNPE
Target sequence in this assay (P24385 whole entry partner): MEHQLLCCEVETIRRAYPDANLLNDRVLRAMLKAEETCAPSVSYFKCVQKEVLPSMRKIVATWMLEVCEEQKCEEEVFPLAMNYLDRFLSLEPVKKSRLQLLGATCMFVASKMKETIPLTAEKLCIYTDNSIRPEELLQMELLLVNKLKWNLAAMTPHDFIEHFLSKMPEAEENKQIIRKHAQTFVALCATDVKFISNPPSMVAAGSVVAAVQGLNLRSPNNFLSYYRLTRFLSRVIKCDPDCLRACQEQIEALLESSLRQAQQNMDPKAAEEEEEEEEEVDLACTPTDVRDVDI
Target sequence in this assay (Q16531 2-1140 limits assumed): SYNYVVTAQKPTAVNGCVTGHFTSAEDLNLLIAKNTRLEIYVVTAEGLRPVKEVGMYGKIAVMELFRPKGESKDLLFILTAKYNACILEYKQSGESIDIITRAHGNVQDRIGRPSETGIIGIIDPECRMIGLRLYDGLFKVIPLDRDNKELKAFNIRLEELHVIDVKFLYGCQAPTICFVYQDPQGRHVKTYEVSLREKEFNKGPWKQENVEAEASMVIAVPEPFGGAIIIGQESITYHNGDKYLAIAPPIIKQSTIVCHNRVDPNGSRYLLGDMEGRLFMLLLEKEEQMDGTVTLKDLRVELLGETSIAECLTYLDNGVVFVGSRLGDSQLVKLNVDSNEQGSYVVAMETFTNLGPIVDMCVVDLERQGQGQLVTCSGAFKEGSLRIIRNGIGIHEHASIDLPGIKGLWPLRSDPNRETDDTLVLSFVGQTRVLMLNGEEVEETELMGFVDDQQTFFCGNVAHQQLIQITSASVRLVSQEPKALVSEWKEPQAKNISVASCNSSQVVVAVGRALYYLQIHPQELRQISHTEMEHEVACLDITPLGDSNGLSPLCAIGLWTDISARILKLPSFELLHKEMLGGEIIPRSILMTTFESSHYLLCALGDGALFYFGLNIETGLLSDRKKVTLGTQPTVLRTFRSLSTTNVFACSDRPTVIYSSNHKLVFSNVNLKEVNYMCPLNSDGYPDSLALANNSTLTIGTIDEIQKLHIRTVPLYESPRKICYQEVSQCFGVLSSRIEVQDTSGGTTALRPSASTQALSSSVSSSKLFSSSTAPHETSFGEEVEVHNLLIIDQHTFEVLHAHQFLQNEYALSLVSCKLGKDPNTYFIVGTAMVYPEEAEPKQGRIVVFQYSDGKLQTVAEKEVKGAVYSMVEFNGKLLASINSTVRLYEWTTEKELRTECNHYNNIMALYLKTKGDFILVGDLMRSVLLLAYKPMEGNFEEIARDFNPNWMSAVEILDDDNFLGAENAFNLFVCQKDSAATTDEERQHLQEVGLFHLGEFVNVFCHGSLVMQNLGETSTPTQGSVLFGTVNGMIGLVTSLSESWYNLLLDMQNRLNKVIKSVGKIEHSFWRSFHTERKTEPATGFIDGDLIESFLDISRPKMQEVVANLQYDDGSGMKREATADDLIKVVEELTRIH
Background: HiBiT is a short tag that completes a luciferase, so light tracks the accessible tagged protein.

For another assay, the system named is MCF7 cells. As to the kind of experiment: Anti-proliferation (viability) of MCF7 cells (Table 7, FIG. 2B). The note with it: Homo sapiens, MCF7, MCF7 cells, 3-6 days, 10-point serial dilution; read-out: GI IC50 in MCF-7.
Assay [2] deals with T1, CDK4. The assay is described as follows: CDK4 percentage degradation in Calu-1 cells (Table 6). The note with it: 16 hours; for inhibition at 0.04 µM: 40 nM; for inhibition at 0.2 µM: 200 nM. The arrangement: Cells that express cyclin D1-3 and CDK4/6 proteins were treated with heterobifunctional compounds; endogenous in cells; host or cells: Calu-1. A digest of the protocol: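 Calu-1 cells exposed to heterobifunctional compounds at 40 nM or 200 nM for 16 h. Cyclin D1 and CDK4 levels measured by Western blot of RIPA lysates (BCA-normalised loading), bands quantified by densitometry and expressed as percentage degradation.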
Target sequence in this assay (P11802 2-303 limits assumed): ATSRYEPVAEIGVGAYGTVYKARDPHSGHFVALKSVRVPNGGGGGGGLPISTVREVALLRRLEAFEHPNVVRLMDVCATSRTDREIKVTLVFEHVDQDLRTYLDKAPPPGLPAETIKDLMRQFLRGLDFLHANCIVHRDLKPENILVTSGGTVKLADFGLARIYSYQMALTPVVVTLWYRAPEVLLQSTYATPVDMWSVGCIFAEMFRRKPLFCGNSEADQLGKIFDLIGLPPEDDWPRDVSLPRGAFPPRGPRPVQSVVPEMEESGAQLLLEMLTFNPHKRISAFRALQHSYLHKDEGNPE
Target sequence in this assay (P24385 whole entry partner): as the sequence (P24385 whole entry partner) above
Target sequence in this assay (Q16531 2-1140 limits assumed): as the sequence (Q16531 2-1140 limits assumed) above

Consider `CNc1ccc(C(=O)Nc2ccc(N(C)C)nn2)c(NCCCCCCCNC(=O)CN2CCN(c3ccc(Nc4ncc(F)c(-c5cc(F)c6nc(C)n(C(C)C)c6c5)n4)nc3)CC2)n1` [CPD-663, N-(6-(dimethylamino)pyridazin-3-yl)-2-((7-(2-(4-(6-((5-fluoro-4-(4-fluoro-1-isopropyl-2-methyl-1H-benzo[d]imidazol-6-yl)pyrimidin-2-yl)amino)pyridin-3-yl)piperazin-1-yl)acetamido)heptyl)amino)-6-(methylamino)nicotinamide], for which, at CDK4 [1], the activity at 0.01 µM was more than 85% and the activity at 0.1 µM is 55 to 85%.

As for `CNc1ccc(C(=O)Nc2ccc(N(C)C)nn2)c(NCCCCCNC(=O)CN2CCN(c3ccc(Nc4ncc(F)c(-c5cc(F)c6nc(C)n(C(C)C)c6c5)n4)nc3)CC2)n1` [CPD-661, N-(6-(dimethylamino)pyridazin-3-yl)-2-((5-(2-(4-(6-((5-fluoro-4-(4-fluoro-1-isopropyl-2-methyl-1H-benzo[d]imidazol-6-yl)pyrimidin-2-yl)amino)pyridin-3-yl)piperazin-1-yl)acetamido)pentyl)amino)-6-(methylamino)nicotinamide], at CDK4 [1], the activity at 0.01 µM was more than 85% and the activity at 0.1 µM was more than 85%.

Consider `CNc1ccc(C(=O)Nc2ccc(N(C)C)nn2)c(NCCCCC(=O)NC2CCC(Nc3ncc4ccc(=O)n(C5CCCC5)c4n3)CC2)n1` (stereo not drawn) [CPD-668, 2-((5-((4-((8-cyclopentyl-7-oxo-7,8-dihydropyrido[2,3-d]pyrimidin-2-yl)amino)cyclohexyl)amino)-5-oxopentyl)amino)-N-(6-(dimethylamino)pyridazin-3-yl)-6-(methylamino)nicotinamide], for which, at CDK4 [1], the activity at 0.01 µM was more than 85% and the activity at 0.1 µM is more than 85%.

Regarding `CNc1ccc(C(=O)Nc2ccc(N(C)C)nn2)c(NCCOCCNC(=O)CN2CCN(c3ccc(Nc4ncc(F)c(-c5cc(F)c6nc(C)n(C(C)C)c6c5)n4)nc3)CC2)n1` [CPD-665, N-(6-(dimethylamino)pyridazin-3-yl)-2-((2-(2-(2-(4-(6-((5-fluoro-4-(4-fluoro-1-isopropyl-2-methyl-1H-benzo[d]imidazol-6-yl)pyrimidin-2-yl)amino)pyridin-3-yl)piperazin-1-yl)acetamido)ethoxy)ethyl)amino)-6-(methylamino)nicotinamide], on CDK4 [1], the activity at 0.01 µM was in the range of 55 to 85% and the activity at 0.1 µM is more than 85%.

Consider `CC(=O)c1c(C)c2cnc(Nc3ccc(CN4CCC(CC(=O)NC5CC6(C5)CC(Nc5nc(NC(C)C)ccc5C(=O)Nc5ccc(N(C)C)nn5)C6)CC4)cn3)nc2n(C2CCCC2)c1=O` (stereo not drawn) [CPD-593, 2-((6-(2-(1-((6-((6-acetyl-8-cyclopentyl-5-methyl-7-oxo-7,8-dihydropyrido[2,3-d]pyrimidin-2-yl)amino)pyridin-3-yl)methyl)piperidin-4-yl)acetamido)spiro[3.3]heptan-2-yl)amino)-N-(6-(dimethylamino)pyridazin-3-yl)-6-(isopropylamino)nicotinamide], for which, at CDK4 [1], the activity at 0.01 µM is more than 85% and the activity at 0.1 µM is more than 85%.

Take `CNc1ccc(C(=O)Nc2ccc(N(C)C)nn2)c(NCCOCCOCCC(=O)N2CCN(c3ccc(Nc4ncc(F)c(-c5cc(F)c6nc(C)n(C(C)C)c6c5)n4)nc3)CC2)n1` [CPD-655, N-(6-(dimethylamino)pyridazin-3-yl)-2-((2-(2-(3-(4-(6-((5-fluoro-4-(4-fluoro-1-isopropyl-2-methyl-1H-benzo[d]imidazol-6-yl)pyrimidin-2-yl)amino)pyridin-3-yl)piperazin-1-yl)-3-oxopropoxy)ethoxy)ethyl)amino)-6-(methylamino)nicotinamide]: on CDK4 [1], the activity at 0.01 µM was more than 85% and the activity at 0.1 µM was more than 85%.

A word on the IC50: it is the point on the concentration scale where inhibition reaches its midpoint. Broadly, the inhibition is the relative decrease from the control value, in per cent. Lower therefore signals a response near the control. For the compound `CNc1ccc(C(=O)Nc2ccc(N(C)C)nn2)c(NC2CC(C(=O)N3CCC(N4CCN(c5ccc(Nc6ncc7c(C)c(C(C)=O)c(=O)n(C8CCCC8)c7n6)nc5)CC4)C3)C2)n1` (stereo not drawn) [CPD-333, 2-((3-(3-(4-(6-((6-acetyl-8-cyclopentyl-5-methyl-7-oxo-7,8-dihydropyrido[2,3-d]pyrimidin-2-yl)amino)pyridin-3-yl)piperazin-1-yl)pyrrolidine-1-carbonyl)cyclobutyl)amino)-N-(6-(dimethylamino)pyridazin-3-yl)-6-(methylamino)nicotinamide], the IC50 in the assay on MCF7 cells was less than 50 nM. Besides, on CDK4 [2], the inhibition at 0.04 µM was less than 30% and the inhibition at 0.2 µM is less than 30%.

`CNc1ccc(C(=O)Nc2ccc(N(C)C)nn2)c(NC2CC3(C2)CN(C(=O)C2CC24CCN(c2ccc(Nc5ncc6c(C)c(C(C)=O)c(=O)n(C7CCCC7)c6n5)nc2)CC4)C3)n1` (stereo not drawn) [CPD-324, 2-((2-(6-(6-((6-acetyl-8-cyclopentyl-5-methyl-7-oxo-7,8-dihydropyrido[2,3-d]pyrimidin-2-yl)amino)pyridin-3-yl)-6-azaspiro[2.5]octane-1-carbonyl)-2-azaspiro[3.3]heptan-6-yl)amino)-N-(6-(dimethylamino)pyridazin-3-yl)-6-(methylamino)nicotinamide]: in the assay with MCF7 cells, the IC50 is less than 50 nM. On CDK4 [2], this compound had an inhibition at 0.04 µM of less than 30% and an inhibition at 0.2 µM of less than 30%.

`CNc1ccc(C(=O)Nc2ccc(N(C)C)nn2)c(NC2CCN(C(=O)CN3CCN(Cc4ccc(Nc5ncc6c(C)c(C(C)=O)c(=O)n(C7CCCC7)c6n5)nc4)CC3)CC2)n1` [CPD-300, 2-((1-(2-(4-((6-((6-acetyl-8-cyclopentyl-5-methyl-7-oxo-7,8-dihydropyrido[2,3-d]pyrimidin-2-yl)amino)pyridin-3-yl)methyl)piperazin-1-yl)acetyl)piperidin-4-yl)amino)-N-(6-(dimethylamino)pyridazin-3-yl)-6-(methylamino)nicotinamide]: in the assay with MCF7 cells, the IC50 fell in the range of 50 to 100 nM. Further, at CDK4 [2], the inhibition at 0.04 µM is less than 30% and the inhibition at 0.2 µM is less than 30%.

`CC(=O)c1c(C)c2cnc(Nc3ccc(N4CCN(CC(=O)NCC5CC(Nc6nc(NC(C)C)ccc6C(=O)Nc6ccc(N(C)C)nn6)C5)CC4)cn3)nc2n(C2CCCC2)c1=O` (stereo not drawn) [CPD-316, 2-((3-((2-(4-(6-((6-acetyl-8-cyclopentyl-5-methyl-7-oxo-7,8-dihydropyrido[2,3-d]pyrimidin-2-yl)amino)pyridin-3-yl)piperazin-1-yl)acetamido)methyl)cyclobutyl)amino)-N-(6-(dimethylamino)pyridazin-3-yl)-6-(isopropylamino)nicotinamide]: the IC50 in the assay with MCF7 cells was less than 50 nM. Also, on CDK4 [2], the inhibition at 0.04 µM was in the range of 30 to 50% and the inhibition at 0.2 µM was in the range of 30 to 50%.

For `CC(=O)c1c(C)c2cnc(Nc3ccc(N4CCN(C5CCN(C(=O)[C@H]6CC[C@H](Nc7nc(NC(C)C)ccc7C(=O)Nc7ccc(N(C)C)nn7)CC6)C5)CC4)cn3)nc2n(C2CCCC2)c1=O` (stereo partly drawn) [CPD-399, 2-((−4-(3-(4-(6-((6-acetyl-8-cyclopentyl-5-methyl-7-oxo-7,8-dihydropyrido[2,3-d]pyrimidin-2-yl)amino)pyridin-3-yl)piperazin-1-yl)pyrrolidine-1-carbonyl)cyclohexyl)amino)-N-(6-(dimethylamino)pyridazin-3-yl)-6-(isopropylamino)nicotinamide], the IC50 with MCF7 cells is less than 50 nM. At CDK4 [2], this compound showed an inhibition at 0.04 µM of less than 30% and an inhibition at 0.2 µM of less than 30%.

In the case of `[2H]C([2H])([2H])Nc1ccc(C(=O)Nc2cccc(C)n2)c(NC2CC3(CC(NC(=O)CN4CCN(c5ccc(Nc6ncc7c(C)c(C(C)=O)c(=O)n(C8CCCC8)c7n6)nc5)CC4)C3)C2)n1` (stereo not drawn) [CPD-232, 2-((6-(2-(4-(6-((6-acetyl-8-cyclopentyl-5-methyl-7-oxo-7,8-dihydropyrido[2,3-d]pyrimidin-2-yl)amino)pyridin-3-yl)piperazin-1-yl)acetamido)spiro[3.3]heptan-2-yl)amino)-6-((methyl-d3)amino)-N-(6-methylpyridin-2-yl)nicotinamide], the IC50 in the assay on MCF7 cells lay within 50 to 100 nM. For the same compound, on CDK4 [2], the inhibition at 0.04 µM is 30 to 50% and the inhibition at 0.2 µM was in the range of 50 to 80%.

`CNc1ccc(C(=O)Nc2cn(C)c(C3CC3)n2)c(NC2CC(NC(=O)CN3CCN(c4ccc(Nc5ncc6c(C)c(C(C)=O)c(=O)n(C7CCCC7)c6n5)nc4)CC3)C2)n1` (stereo not drawn) [CPD-217, 2-((3-(2-(4-(6-((6-acetyl-8-cyclopentyl-5-methyl-7-oxo-7,8-dihydropyrido[2,3-d]pyrimidin-2-yl)amino)pyridin-3-yl)piperazin-1-yl)acetamido)cyclobutyl)amino)-N-(2-cyclopropyl-1-methyl-1H-imidazol-4-yl)-6-(methylamino)nicotinamide]: the IC50 in the assay with MCF7 cells was more than 100 nM. At CDK4 [2], the inhibition at 0.04 µM fell in the range of 50 to 80% and the inhibition at 0.2 µM was in the range of 50 to 80%.

On to `[2H]C([2H])([2H])Nc1ccc(C(=O)Nc2cc(C)n(C)n2)c(NC2CC3(CC(NC(=O)CN4CCN(c5ccc(Nc6ncc7c(C)c(C(C)=O)c(=O)n(C8CCCC8)c7n6)nc5)CC4)C3)C2)n1` (stereo not drawn) [CPD-244, 2-((6-(2-(4-(6-((6-acetyl-8-cyclopentyl-5-methyl-7-oxo-7,8-dihydropyrido[2,3-d]pyrimidin-2-yl)amino)pyridin-3-yl)piperazin-1-yl)acetamido)spiro[3.3]heptan-2-yl)amino)-N-(1,5-dimethyl-1H-pyrazol-3-yl)-6-((methyl-d3)amino)nicotinamide], for which the IC50 with MCF7 cells was 50 to 100 nM. At CDK4 [2], this compound showed an inhibition at 0.04 µM of 30 to 50% and an inhibition at 0.2 µM of 50 to 80%.
